Each structure is given as a SMILES string.

This is an account of results in patent US6121290A, “Use of GABA uptake inhibitors as anti-tussive agents” (SmithKline Beecham Corporation, priority 1998, dated 2000).

Experiment [1] concerns citric acid-induced cough. Put plainly: Citric acid-induced cough in guinea pigs (anti-tussive activity in vivo). More on the design: species or system Male Hartley Guinea pigs. The following applies: 0.4M citric acid, 30 min pre-treatment; for Treated (incidences of cough): coughs in 13 minutes; for % Inhibition: cough inhibition vs control. As for the experimental part:
Citric acid was nebulized for only one minute to the animals. Coughs were determined by examination of the flow signal and observation of the test animals.
To perform the experiments Male Hartley Guinea pigs weighing between 550, and 750 g were placed into a clear plastic exposure chamber with an internal volume of 6 l. A bias air flow was applied to the chamber at a flow rate of 2 l/min for the duration of the experiment.
An incidence of cough was denoted by a larger than normal inspiration (at least twice normal tidal deflection) followed immediately by a rapid, forceful expiration (more than three times the normal excursion from baseline). A cough was easily distinguished from animal movement, augmented breaths and gasps by close inspection of the data. Because a sneeze and cough have similar flow patterns, they were differentiated by visual observation of the animals.
Test compounds were administered via the IP route, and the pre-treatment time was 30 min. The aerosol was administered to the animals by connecting a small volume ultrasonic nebulizer (AeroSonic model 5000D Devilbis Sumerset, Pa.) to the bias-flow immediately before the exposure chamber inlet. The animals were challenged with 0.4M citric acid aerosol solution. A volume of 2 ml of citric acid solution was placed in the ultrasonic nebulizer. In one minute approximately 0.5 ml of the solution was nebulized to each animal. This has been previously shown to induce the cough reflex. The incidences of cough in 13 minutes (aerosolization time+observation time,) as well as time to onset of the first cough were recorded.

For experiment [2], the system named is GABA uptake. The following applies: in words, from cited literature; cited from earlier work.
For experiment [3], the system named is citric acid-induced cough. Put plainly: Citric acid-induced cough in guinea pigs (anti-tussive activity in vivo). The following applies: 0.4M citric acid; for Treated (incidences of cough): coughs in 13 minutes; for % Inhibition: cough inhibition vs control. Details: species or system Male Hartley Guinea pigs.

For `O=C(O)[C@@H]1CNCC[C@@H]1O` (relative stereo) [Compound 6, cis4-hydroxy-3-piperidinecarboxylic acid], in experiment [1] (10 mg ip), the “Treated (incidences of cough)” value is listed as 16.3 and the “% Inhibition” value is recorded as 8.21%. For the same molecule, in experiment [1] (20 mg ip), the “Treated (incidences of cough)” value was 8.6 and the “% Inhibition” value amounted to 35.82%.
On to `Cc1ccsc1C(=CCCN1CCC[C@@H](C(=O)O)C1)c1sccc1C` [(R)-1-[4,4-bis(3-methyl-2-thienyl)-3-butenyl]-3-piperidinecarboxylic acid, reference compound], for which the “GABA uptake inhibitory activity” value in experiment [2] is “having GABA uptake inhibitory activity”.
Turning to `O=C(O)CC1CCN(CCC=C(c2ccccc2)c2ccccc2)C1` (centres unmarked) [Compound 1, N-(4,4-diphenyl-3-butenyl)-3-pyrrolidineacetic acid], in experiment [1] (20 mg ip), the “Treated (incidences of cough)” value turned out to be 7.2 and the “% Inhibition” value was 53.13%.
The like results for `O=C(O)C1CCCNC1` (centres unmarked) [Compound 2, 3-piperidinecarboxylic acid] were, in that order, 9.75 and 28.36%.
On to `O=C(O)[C@@H]1CCCN(CCC=C(c2ccccc2)c2ccccc2)C1` [Compound 3, (R)-N-(4,4-diphenyl-3-butenyl)-3-piperidinecarboxylic acid], for which, in experiment [2], the “GABA uptake inhibitory activity” value was “having GABA uptake inhibitory activity”. The “Treated (incidences of cough)” value in experiment [3] (10 mg po) is given as 8.2; in experiment [3] (30 mg po), 8; in experiment [1] (1 mg ip), 6.6; in experiment [1] (10 mg ip), 2.8. Also, the “% Inhibition” value in experiment [3] (10 mg po) is reported as 42.25%; in experiment [3] (30 mg po), 43.66%; in experiment [1] (1 mg ip), 49.23%; in experiment [1] (10 mg ip), 78.46%.
As for `O=C(O)C1=CCCNC1` [Compound 4, 1,2,5,6-tetrahydro-3-pyridinecarboxylic acid], in experiment [2], the “GABA uptake inhibitory activity” value is “having GABA uptake inhibitory activity”. Also, the “Treated (incidences of cough)” value in experiment [1] (6 mg ip) was determined as 7.6; in experiment [1] (20 mg ip), 4.75. For the same molecule, the “% Inhibition” value turned out to be 48.30% in experiment [1] (6 mg ip) and 67.69% in experiment [1] (20 mg ip).
Turning to `O=C(O)C1=CCCN(CCC=C(c2ccccc2)c2ccccc2)C1` [Compound 5, N-(4,4-diphenyl-3-butenyl)-1,2,5,6-tetrahydro-3-pyridinecarboxylic acid], the entries for the “Treated (incidences of cough)” value in experiment [1] (1 mg ip), in experiment [1] (3 mg ip) and in experiment [1] (30 mg ip) were 15.4, 12.4 and 1, respectively. In addition, the “% Inhibition” value in experiment [1] (1 mg ip) was 5.79%; in experiment [1] (3 mg ip), 20.53%; in experiment [1] (30 mg ip), 92.48%.
